Test results taken from patent publication US20040105861A1, “Use of factor XIIIa inhibitors to treat atherosclerosis” (SmithKline Beecham Corporation, priority 1997, published 2004).

Target: purified human Factor XIIIa (Homo sapiens, UniProt P00488)
Conditions: 10 mM EDTA added in the presence of Factor XIIIa 30 U/ml; fibrinogen 100 μg/ml, Lp(a) 500 μg/ml, 37° C., 30 minutes to 6 hours
Experimental: To determine if Factor XIIIa crosslinks Lp(a) with fibrinogen, Factor XIIIa was incubated with Lp(a) and fibrinogen in solution and then analyzed for Lp(a)-fibrinogen crosslinking over a time course ranging from 30 minutes to 6 hours. Briefly, purified human fibrinogen (Calbiochem, San Diego, Calif.), at a final concentration of 100 μg/ml, was incubated with purified human Lp(a) (Enzyme Research Laboratories, South Bend, Ind.) at a final concentration of 500 μg/ml, in the presence of purified human Factor XIIIa (Enzyme Research Laboratories, South Bend, Ind.) at 30 U/ml. As controls, Factor XIIIa was either omitted from the reaction or 10 mM EDTA was added in the presence of Factor XIIIa to inhibit Factor XIIIa activity. The reactions were conducted at 37° C. in a buffer of 40 mM Tris, 0.15 M NaCl, 5 mM dithiolthreitol, and 10 mM CaC12, at pH 8.3. Factor XIII was preactivated to Factor XIIIa immediately before each experiment by incubating Factor XIII with thrombin at 3 U/ml in 40 mM Tris and 0. 15 M NaCl, at pH 8.3 for 1 hour at room temperature. The activation procedure was stopped by adding hirudin at 100 U/ml (Sigma) to inhibit the thrombin. […]
To identify the presence of Lp(a) within the immunoprecipitated complexes, samples were analyzed by western blot using an antibody to Lp(a). […]

Chain of purified human Factor XIIIa (P00488 39-732 limits assumed): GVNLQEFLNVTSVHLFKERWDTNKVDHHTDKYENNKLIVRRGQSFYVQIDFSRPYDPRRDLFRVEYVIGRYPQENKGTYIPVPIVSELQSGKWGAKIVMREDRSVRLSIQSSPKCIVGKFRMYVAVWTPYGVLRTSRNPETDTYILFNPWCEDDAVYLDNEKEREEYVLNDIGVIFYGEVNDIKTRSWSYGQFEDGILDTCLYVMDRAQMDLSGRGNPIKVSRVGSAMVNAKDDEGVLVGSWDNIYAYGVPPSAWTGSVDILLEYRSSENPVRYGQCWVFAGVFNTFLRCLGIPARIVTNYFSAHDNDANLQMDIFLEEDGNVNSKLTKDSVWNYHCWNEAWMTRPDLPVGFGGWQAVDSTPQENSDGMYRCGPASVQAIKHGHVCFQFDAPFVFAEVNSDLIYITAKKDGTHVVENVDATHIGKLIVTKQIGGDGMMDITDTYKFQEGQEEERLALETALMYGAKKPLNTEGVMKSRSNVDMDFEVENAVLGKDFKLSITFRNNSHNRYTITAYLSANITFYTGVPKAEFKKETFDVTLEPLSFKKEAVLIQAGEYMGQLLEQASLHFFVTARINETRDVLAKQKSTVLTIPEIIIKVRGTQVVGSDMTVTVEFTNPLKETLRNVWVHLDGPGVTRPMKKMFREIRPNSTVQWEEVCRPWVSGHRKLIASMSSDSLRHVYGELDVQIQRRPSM

O=C(O)CN(CCN(CC(=O)O)CC(=O)O)CC(=O)O [EDTA]
Lp(a) crosslinked with fibrinogen (Lp(a) in anti-fibrinogen immunoprecipitated material, western blot): Lp(a) was not incorporated in the immunoprecipitated material
